Measured values taken from patent publication US12357631B2 (priority 2018, dated 2025).

These compounds were tested against PB2 (Influenza A virus, UniProt P03428) (assay: biochemical).
Chain of PB2 (P03428 whole entry, looked up): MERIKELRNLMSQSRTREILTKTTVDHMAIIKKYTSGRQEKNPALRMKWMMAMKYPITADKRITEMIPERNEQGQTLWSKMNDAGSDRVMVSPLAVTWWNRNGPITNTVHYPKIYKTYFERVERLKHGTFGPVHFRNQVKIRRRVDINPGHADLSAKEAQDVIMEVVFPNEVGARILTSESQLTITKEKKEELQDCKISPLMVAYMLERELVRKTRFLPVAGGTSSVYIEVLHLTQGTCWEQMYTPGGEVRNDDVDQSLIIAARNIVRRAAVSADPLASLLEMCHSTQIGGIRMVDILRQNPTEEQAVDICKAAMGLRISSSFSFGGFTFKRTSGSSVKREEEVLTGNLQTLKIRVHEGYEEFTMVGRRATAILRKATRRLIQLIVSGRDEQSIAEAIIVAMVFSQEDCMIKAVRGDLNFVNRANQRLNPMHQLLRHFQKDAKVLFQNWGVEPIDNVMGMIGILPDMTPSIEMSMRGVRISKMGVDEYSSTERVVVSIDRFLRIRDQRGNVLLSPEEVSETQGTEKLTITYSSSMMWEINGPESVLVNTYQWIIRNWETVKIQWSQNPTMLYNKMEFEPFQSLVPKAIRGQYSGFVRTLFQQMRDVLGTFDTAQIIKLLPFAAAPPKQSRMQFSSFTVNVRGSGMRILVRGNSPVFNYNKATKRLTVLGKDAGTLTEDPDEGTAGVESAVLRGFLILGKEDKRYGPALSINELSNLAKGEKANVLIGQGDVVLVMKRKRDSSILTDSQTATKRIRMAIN
Assay type: binding
With `CCOc1ccccc1CNC(=O)OCc1ccnc(C(=O)N[C@H]2CCC[C@@H](Nc3nc(-c4c[nH]c5ncc(F)cc45)ncc3F)C2)c1` [Compound A133] the EC50 was greater than 100 µM. `COC(=O)N[C@H]1CCC[C@@H](Nc2nc(-c3c[nH]c4ncc(F)cc34)ncc2F)C1` [Compound A286] gave an EC50 of 25 to 50 µM. In the case of `O=C(NCCc1ccccc1)OCc1ccnc(C(=O)N[C@@H]2CCC[C@H](Nc3nc(-c4c[nH]c5ncc(F)cc45)ncc3F)C2)c1` [Compound A94], the EC50 is reported as greater than 100 µM. `O=C(NCc1cccnc1)OCc1ccnc(C(=O)N[C@@H]2CCC[C@H](Nc3nc(-c4c[nH]c5ncc(F)cc45)ncc3F)C2)c1` [Compound A93] showed an EC50 of 5 to 25 µM. With `CCOCc1cccc(COCC(=O)N[C@@H]2CCC[C@H](Nc3nc(-c4c[nH]c5ncc(F)cc45)ncc3F)C2)c1` [Compound A275] the EC50 was greater than 100 µM. `O=C(N[C@H]1CCC[C@@H](Nc2nc(-c3c[nH]c4ncc(F)cc34)ncc2F)C1)N1CCCC(CCCOCCO)C1` (some centres unmarked) [Compound A10] showed an EC50 of 5 to 25 µM. `CN1CCC(CNC(=O)OCc2ccnc(C(=O)N[C@H]3CCC[C@@H](Nc4nc(-c5c[nH]c6ncc(F)cc56)ncc4F)C3)c2)CC1` [Compound A117] gave an EC50 of 5 to 25 µM. Compound `CCOCCOCCOCCNC(=O)N(CCOCCOCC)[C@@H]1CCC[C@H](Nc2nc(-c3c[nH]c4ncc(F)cc34)ncc2F)C1` [Compound B4] has an EC50 greater than 100 µM. With `CCNC(=O)CNC(=O)OCc1ccnc(C(=O)N[C@H]2CCC[C@@H](Nc3nc(-c4c[nH]c5ncc(F)cc45)ncc3F)C2)c1` [Compound A111] the EC50 was 5 to 25 µM. `CCCOCCCCCc1ccnc(C(=O)N[C@@H]2CCC[C@H](Nc3nc(-c4c[nH]c5ncc(F)cc45)ncc3F)C2)c1` [Compound A28] gave an EC50 greater than 100 µM. `CCOCCCCCOCC(=O)N[C@@H]1CCC[C@H](Nc2nc(-c3c[nH]c4ncc(F)cc34)ncc2F)C1` [Compound A274] showed an EC50 greater than 100 µM. `O=C(NCC1CCCO1)OCc1ccnc(C(=O)N[C@H]2CCC[C@@H](Nc3nc(-c4c[nH]c5ncc(F)cc45)ncc3F)C2)c1` (some centres unmarked) [Compound A106] showed an EC50 of 5 to 25 µM. `O=C(N[C@H]1CCC[C@@H](Nc2nc(-c3c[nH]c4ncc(F)cc34)ncc2F)C1)c1ccccn1` [Compound A35] gave an EC50 of 50 to 100 µM. Compound `CCOCCOCCCCCN(C)C(=O)N1CCC(CNc2nc(-c3c[nH]c4ncc(F)cc34)ncc2F)C1` (centres unmarked) [Compound C8] has an EC50 greater than 100 µM. For `CCOCCOCCCCCN(CC(=O)O)C(=O)N[C@@H]1CCC[C@H](Nc2nc(-c3c[nH]c4ncc(F)cc34)ncc2F)C1` [Compound A202], the EC50 was 5 to 25 µM. `CCOCCOCCCc1ccnc(C(=O)N[C@H]2CCC[C@@H](Nc3nc(-c4c[nH]c5ncc(F)cc45)ncc3F)C2)c1` [Compound A24] showed an EC50 of 50 to 100 µM. `CCCOCCCCCCCN(C)C(=O)N[C@@H]1CCC[C@H](Nc2nc(-c3c[nH]c4ncc(F)cc34)ncc2F)C1` [Compound A199] gave an EC50 greater than 100 µM. `O=C(NCc1ccc(F)cc1)OCc1ccnc(C(=O)N[C@@H]2CCC[C@H](Nc3nc(-c4c[nH]c5ncc(F)cc45)ncc3F)C2)c1` [Compound A92] gave an EC50 greater than 100 µM. In the case of `O=C(N[C@H]1CCC[C@@H](Nc2nc(-c3c[nH]c4ncc(F)cc34)ncc2F)C1)c1cnc2ccccc2c1` [Compound A55], the EC50 is reported as 5 to 25 µM. With `CCOCc1cccc(COCc2ccnc(C(=O)N[C@H]3CCC[C@@H](Nc4nc(-c5c[nH]c6ncc(F)cc56)ncc4F)C3)c2)c1` [Compound A71] the EC50 was greater than 100 µM. `CN(CCCCCOCCOCc1ccccc1)C(=O)N[C@H]1CCC[C@@H](Nc2nc(-c3c[nH]c4ncc(F)cc34)ncc2F)C1` [Compound A221] showed an EC50 greater than 100 µM. Compound `O=C(NCc1cccc(Oc2ccccc2)c1)OCc1ccnc(C(=O)N[C@H]2CCC[C@@H](Nc3nc(-c4c[nH]c5ncc(F)cc45)ncc3F)C2)c1` [Compound A119] has an EC50 greater than 100 µM. `O=C(NCC(O)CO)OCc1ccnc(C(=O)N[C@H]2CCC[C@@H](Nc3nc(-c4c[nH]c5ncc(F)cc45)ncc3F)C2)c1` (some centres unmarked) [Compound A99] was tested, and the EC50 was less than 5 µM. With `COc1ccc(CNC(=O)OCc2ccnc(C(=O)N[C@H]3CCC[C@@H](Nc4nc(-c5c[nH]c6ncc(F)cc56)ncc4F)C3)c2)cc1OC` [Compound A126] the EC50 was greater than 100 µM. For `CCOCCOCCCCCN(C(=O)N[C@H]1CCC[C@@H](Nc2nc(-c3c[nH]c4ncc(F)cc34)ncc2F)C1)C1CC1` [Compound A242], the EC50 was greater than 100 µM. `NCCOCCOCCOCC(=O)N1CCC[C@H](Nc2nc(-c3c[nH]c4ncc(F)cc34)ncc2F)C1` [Compound C4] gave an EC50 of 5 to 25 µM. In the case of `O=C(NCc1ccccc1F)OCc1ccnc(C(=O)N[C@H]2CCC[C@@H](Nc3nc(-c4c[nH]c5ncc(F)cc45)ncc3F)C2)c1` [Compound A124], the EC50 is reported as greater than 100 µM. For `CCOCCOc1cccc(CCN(C)C(=O)N[C@@H]2CCC[C@H](Nc3nc(-c4c[nH]c5ncc(F)cc45)ncc3F)C2)c1` [Compound A186], the EC50 was greater than 100 µM. Work on `Cc1cccc(CNC(=O)OCc2ccnc(C(=O)N[C@H]3CCC[C@@H](Nc4nc(-c5c[nH]c6ncc(F)cc56)ncc4F)C3)c2)c1` [Compound A127] yielded an EC50 greater than 100 µM. `CCOCCOCCCCCN(Cc1ccncc1)C(=O)N[C@H]1CCC[C@@H](Nc2nc(-c3c[nH]c4ncc(F)cc34)ncc2F)C1` [Compound A208] was tested, and the EC50 was greater than 100 µM. For `Cc1ccccc1CNC(=O)OCc1ccnc(C(=O)N[C@H]2CCC[C@@H](Nc3nc(-c4c[nH]c5ncc(F)cc45)ncc3F)C2)c1` [Compound A123], the EC50 was greater than 100 µM. `O=C(O)CCc1ccnc(C(=O)N[C@H]2CCC[C@@H](Nc3nc(-c4c[nH]c5ncc(F)cc45)ncc3F)C2)c1` [Compound A49] gave an EC50 of less than 5 µM. For `O=C(N[C@H]1CCC[C@@H](Nc2nc(-c3c[nH]c4ncc(F)cc34)ncc2F)C1)c1cc(-c2ccccc2)ccn1` [Compound A54], the EC50 was 5 to 25 µM. With `CC(C)NCCNC(=O)OCc1ccnc(C(=O)N[C@H]2CCC[C@@H](Nc3nc(-c4c[nH]c5ncc(F)cc45)ncc3F)C2)c1` [Compound A116] the EC50 was 5 to 25 µM. `CCOCCOCCCCCN1CC(=O)N([C@@H]2CCC[C@H](Nc3nc(-c4c[nH]c5ncc(F)cc45)ncc3F)C2)C1=O` [Compound A5] showed an EC50 greater than 100 µM. Compound `CCc1cccc(OCCOCc2ccnc(C(=O)N[C@H]3CCC[C@@H](Nc4nc(-c5c[nH]c6ncc(F)cc56)ncc4F)C3)c2)c1` [Compound A72] has an EC50 of 25 to 50 µM. For `CCOCCOCCCCCN(C)C(=O)N(C)[C@H]1CCC[C@@H](Nc2nc(-c3c[nH]c4ncc(F)cc34)ncc2F)C1` [Compound A241], the EC50 was greater than 100 µM. `CCCCCOCCOCCNC(=O)N[C@@H]1CCC[C@H](Nc2nc(-c3c[nH]c4ncc(F)cc34)ncc2F)C1` [Compound A183] showed an EC50 of 50 to 100 µM. `O=C(N[C@H]1CCC[C@@H](Nc2nc(-c3c[nH]c4ncc(F)cc34)ncc2F)C1)c1cc2ccccc2cn1` [Compound A46] gave an EC50 greater than 100 µM. With `CCOc1ccccc1OCCCC1CCCN(C(=O)N[C@H]2CCC[C@@H](Nc3nc(-c4c[nH]c5ncc(F)cc45)ncc3F)C2)C1` (some centres unmarked) [Compound A8] the EC50 was greater than 100 µM. Work on `CCCCc1ccnc(C(=O)N[C@H]2CCC[C@@H](Nc3nc(-c4c[nH]c5ncc(F)cc45)ncc3F)C2)c1` [Compound A42] yielded an EC50 greater than 100 µM. `O=C(N[C@H]1CCC[C@@H](Nc2nc(-c3c[nH]c4ncc(F)cc34)ncc2F)C1)N1CCCC(CCCOCCOCc2ccccc2)C1` (some centres unmarked) [Compound A9] gave an EC50 greater than 100 µM. `CCOc1cccc(-c2ccnc(C(=O)N[C@H]3CCC[C@@H](Nc4nc(-c5c[nH]c6ncc(F)cc56)ncc4F)C3)c2)c1` [Compound A52] gave an EC50 greater than 100 µM. In the case of `CCOc1cccc(-c2cncc(C(=O)N[C@@H]3CCC[C@H](Nc4nc(-c5c[nH]c6ncc(F)cc56)ncc4F)C3)c2)c1` [Compound A68], the EC50 is reported as 25 to 50 µM. `O=C(NCc1cccc(C(=O)O)c1)OCc1ccnc(C(=O)N[C@@H]2CCC[C@H](Nc3nc(-c4c[nH]c5ncc(F)cc45)ncc3F)C2)c1` [Compound A98] was tested, and the EC50 was less than 5 µM. `CCOCCOCCOCCNC(=O)N(CCOCc1ccccc1)[C@@H]1CCC[C@H](Nc2nc(-c3c[nH]c4ncc(F)cc34)ncc2F)C1` [Compound B5] showed an EC50 greater than 100 µM. With `CCOCCOc1cccc(CC(=O)N[C@@H]2CCC[C@H](Nc3nc(-c4c[nH]c5ncc(F)cc45)ncc3F)C2)c1` [Compound A273] the EC50 was 50 to 100 µM. With `CCOCCOCCCCCN(C(=O)N[C@@H]1CCC[C@H](Nc2nc(-c3c[nH]c4ncc(Cl)cc34)ncc2F)C1)C(C)C` [Compound A248] the EC50 was greater than 100 µM. `O=C(N[C@@H]1CCC[C@H](Nc2nc(-c3c[nH]c4ncc(F)cc34)ncc2F)C1)c1ccc(-c2ccccc2)nc1` [Compound A63] showed an EC50 of 5 to 25 µM. Compound `CCOCCOCc1cc(-c2ccnc(C(=O)N[C@H]3CCC[C@@H](Nc4nc(-c5c[nH]c6ncc(F)cc56)ncc4F)C3)c2)ccc1F` [Compound A113] has an EC50 greater than 100 µM. `CC(C)[C@H](NC(=O)OCc1ccnc(C(=O)N[C@@H]2CCC[C@H](Nc3nc(-c4c[nH]c5ncc(F)cc45)ncc3F)C2)c1)C(=O)O` [Compound A135] gave an EC50 of 5 to 25 µM. With `CCNC(=O)C(NC(=O)OCc1ccnc(C(=O)N[C@H]2CCC[C@@H](Nc3nc(-c4c[nH]c5ncc(F)cc45)ncc3F)C2)c1)C(C)(C)C` (some centres unmarked) [Compound A148] the EC50 was 50 to 100 µM. In the case of `CCOCCCCCOCCN(C)C(=O)N[C@H]1CCC[C@@H](Nc2nc(-c3c[nH]c4ncc(F)cc34)ncc2F)C1` [Compound A193], the EC50 is reported as greater than 100 µM. `CCOC(=O)CCOCCOCCOCC(=O)N1CCC[C@@H](Nc2nc(-c3c[nH]c4ncc(F)cc34)ncc2F)C1` [Compound C6] showed an EC50 of 5 to 25 µM. In the case of `CCOCCCCCCc1ccnc(C(=O)N[C@H]2CCC[C@@H](Nc3nc(-c4c[nH]c5ncc(F)cc45)ncc3F)C2)c1` [Compound A30], the EC50 is reported as greater than 100 µM. `O=C(NCCc1ccc(Oc2ccccc2)cc1)OCc1ccnc(C(=O)N[C@H]2CCC[C@@H](Nc3nc(-c4c[nH]c5ncc(F)cc45)ncc3F)C2)c1` [Compound A100] was tested, and the EC50 was greater than 100 µM. `Cc1ccc(C(=O)N[C@H]2CCC[C@@H](Nc3nc(-c4c[nH]c5ncc(F)cc45)ncc3F)C2)cn1` [Compound A56] showed an EC50 of less than 5 µM. In the case of `CCCCCOCCCc1ccnc(C(=O)N[C@@H]2CCC[C@H](Nc3nc(-c4c[nH]c5ncc(F)cc45)ncc3F)C2)c1` [Compound A27], the EC50 is reported as greater than 100 µM. In the case of `O=C(NCc1ccncc1)OCc1ccnc(C(=O)N[C@H]2CCC[C@@H](Nc3nc(-c4c[nH]c5ncc(F)cc45)ncc3F)C2)c1` [Compound A108], the EC50 is reported as 5 to 25 µM. For `COCCOCc1ccnc(C(=O)N[C@@H]2CCC[C@H](Nc3nc(-c4c[nH]c5ncc(F)cc45)ncc3F)C2)c1` [Compound A45], the EC50 was 25 to 50 µM. Compound `CN(CCOCCOCCOCCO)C(=O)N[C@H]1CCC[C@@H](Nc2nc(-c3c[nH]c4ncc(F)cc34)ncc2F)C1` [Compound A191] has an EC50 of 25 to 50 µM. Work on `O=C(O)CNC(=O)OCc1ccnc(C(=O)N[C@@H]2CCC[C@H](Nc3nc(-c4c[nH]c5ncc(F)cc45)ncc3F)C2)c1` [Compound A107] yielded an EC50 of less than 5 µM.
